Measurements reported in patent publication US5675003A, “3-ammoniopropenyl cephalosporin compounds as antibacterial agents” (Korea Institute of Science and Technology, priority 1995, dated 1997).
Converted amounts (≈) assume the structure as drawn.

Experiments:
Experiment in all cases: MIC, in vitro agar dilution method
Format in all cases: cell-based
Escherichia coli 1507 E = conditions: E.c.4, Escherichia coli 1507 E
Method: (§1) The MICs of the new cephalosporins of the present invention against Gram-positive and Gram-negative bacteria were determined by an in vitro agar dilution method. For comparisons, the MIC values of ceftazidime are also listed.
(§2) In vitro antimicrobial activity of the cephalosporins (l) (MIC:
E.c.4, Escherichia coli 1507 E;

[1] = system: Enterobacter cloacae P 99; conditions: Enterobacter cloacae, P99
Method: as §1, §2
En.c.1, Enterobacter cloacae P 99;

Escherichia coli TEM = conditions: E.c.3, Escherichia coli TEM
Method: as §1, §2
E.c.3, Escherichia coli TEM;

E.c.5 = conditions: Escherichia coli, E.c.5 (strain not defined)
Method: as §1

Escherichia coli DC0 = conditions: E.c.2, Escherichia coli DC0
Method: as §1, §2
E.c.2, Escherichia coli DC0;

[2] = system: Pseudomonas aeruginosa 9027; conditions: P.a.1, Pseudomonas aeruginosa 9027; agar dilution; read-out: MIC
Method: as §1, §2
P.a.1, Pseudomonas aeruginosa 9027;

[3] = system: Streptococcus pyogenes A 77; conditions: A77; S.p.2, Streptococcus pyogenes A 77; agar dilution; read-out: MIC
Method: as §1, §2
S.p.2, Streptococcus pyogenes A 77;

Escherichia coli O55 = conditions: E.c.1, Escherichia coli O55
Method: as §1, §2
E.c.1, Escherichia coli O55;

[4] = system: Staphlococcus aureus SG 511; conditions: S.a.1, Staphlococcus aureus SG 511; agar dilution; read-out: MIC
Method: as §1, §2
S.a.1, Staphlococcus aureus SG 511;

[5] = system: Klebsiella oxytoca 1082 E; conditions: K.o., Klebsiella oxytoca 1082 E; agar dilution; read-out: MIC
Method: as §1, §2
K.o., Klebsiella oxytoca 1082 E;

[6] = system: Pseudomonas aeruginosa 1592 E; conditions: P.a.2, Pseudomonas aeruginosa 1592 E; agar dilution; read-out: MIC
Method: as §1, §2
P.a.2, Pseudomonas aeruginosa 1592 E;

Salmonella typhimurium = conditions: Salmonella enterica; S.t., Salmonella typhimurium; agar dilution; read-out: MIC
Method: as §1, §2
S.t., Salmonella typhimurium;

[7] = system: Pseudomonas eruginosa 1771; conditions: P.a.3, Pseudomonas eruginosa 1771
Method: as §1, §2
P.a.3, Pseudomonas eruginosa 1771;

[8] = system: Enterobacter cloacae 1321 E; conditions: En.c.2, Enterobacter cloacae 1321 E; agar dilution; read-out: MIC
Method: as §1, §2
En.c.2, Enterobacter cloacae 1321 E.

[9] = system: Staphylococcus aureus 285; conditions: S.a.2, Staphylococcus aureus 285; agar dilution; read-out: MIC
Method: as §1, §2
E.c. TEM, S.a. 2, Staphylococcus aureus 285;

[10] = system: Klebsiella aerogenes 1552 E; conditions: K.a., Klebsiella aerogenes 1552 E; agar dilution; read-out: MIC
Method: as §1, §2
K.a., Klebsiella aerogenes 1552 E;

Streptococcus faecium MD = conditions: Enterococcus faecium; S.f., Streptococcus faecium MD; agar dilution; read-out: MIC
Method: as §1, §2
S.f., Streptococcus faecium MD;

[11] = system: Staphylococcus aureus 503; conditions: S.a.3, Staphylococcus aureus 503; agar dilution; read-out: MIC
Method: as §1, §2
S.a.3, Staphylococcus aureus 503;

[12] = system: Pseudomonas aeruginosa 1771 M; conditions: P.a.4, Pseudomonas aeruginosa 1771 M; agar dilution; read-out: MIC
Method: as §1, §2
P.a.4, Pseudomonas aeruginosa 1771 M;

[13] = system: Streptococcus pyogenes 308 A; conditions: S.p.1, Streptococcus pyogenes 308 A; agar dilution; read-out: MIC
Method: as §1, §2
S.p.1, Streptococcus pyogenes 308 A;

Row | Compound | MIC (Escherichia coli 1507 E) [µg/mL] | MIC [1] [µg/mL] | MIC (Escherichia coli TEM) [µg/mL] | MIC (E.c.5) [µg/mL] | MIC (Escherichia coli DC0) [µg/mL] | MIC [2] [µg/mL] | MIC [3] [µg/mL] | MIC (Escherichia coli O55) [µg/mL] | MIC [4] [µg/mL] | MIC [5] [µg/mL] | MIC [6] [µg/mL] | MIC (Salmonella typhimurium) [µg/mL] | MIC [7] [µg/mL] | MIC [8] [µg/mL] | MIC [9] [µg/mL] | MIC [10] [µg/mL] | MIC (Streptococcus faecium MD) [µg/mL] | MIC [11] [µg/mL] | MIC [12] [µg/mL] | MIC [13] [µg/mL]
1 | CO/N=C(\C(=O)N[C@@H]1C(=O)N2C(C(=O)[O-])=C(/C=C/C[N+]3(C)CC[C@H](O)[C@H](O)C3)CS[C@H]12)c1csc(N)n1 (relative stereo) [1-e, 7β-[2-(2-Aminothiazol-4-yl)-(Z)-2-methoxyiminoacetamido]-3-[(E)-3-(3,4-cis-dihydroxy-1-methyl-1-piperidinio)-1-propen-1-yl]-3-cephem-4-carboxylate] | 0.049 (≈ 0.0887 µM) | 6.25 (≈ 11.3 µM) | 0.025 (≈ 0.0452 µM) | 0.049 (≈ 0.0887 µM) | 0.049 (≈ 0.0887 µM) | 6.25 (≈ 11.3 µM) | 0.013 (≈ 0.0235 µM) | 0.025 (≈ 0.0452 µM) | 0.39 (≈ 0.706 µM) | 3.13 (≈ 5.66 µM) | 3.13 (≈ 5.66 µM) | 0.025 (≈ 0.0452 µM) | 1.56 (≈ 2.82 µM) | 0.025 (≈ 0.0452 µM) | 0.78 (≈ 1.41 µM) | 0.025 (≈ 0.0452 µM) | 50 (≈ 90.5 µM) | 0.2 (≈ 0.362 µM) | 0.2 (≈ 0.362 µM) | 0.013 (≈ 0.0235 µM)
2 | CO/N=C(\C(=O)N[C@@H]1C(=O)N2C(C(=O)[O-])=C(/C=C/C[N+]3(C)CC[C@@H](O)[C@H](O)C3)CS[C@H]12)c1csc(N)n1 (relative stereo) [1-f, 7β-[2-(2-Aminothiazol-4-yl)-(Z)-2-methoxyiminoacetamido]-3-[(E)-3-(3,4-trans-dihydroxy-1-methyl-1-piperidinio)-1-propen-1-yl]-3-cephem-4-carboxylate] | 0.049 (≈ 0.0887 µM) | 12.5 (≈ 22.6 µM) | 0.025 (≈ 0.0452 µM) | 0.049 (≈ 0.0887 µM) | 0.049 (≈ 0.0887 µM) | 3.13 (≈ 5.66 µM) | 0.013 (≈ 0.0235 µM) | 0.025 (≈ 0.0452 µM) | 0.39 (≈ 0.706 µM) | 3.13 (≈ 5.66 µM) | 1.56 (≈ 2.82 µM) | 0.025 (≈ 0.0452 µM) | 0.78 (≈ 1.41 µM) | 0.025 (≈ 0.0452 µM) | 0.78 (≈ 1.41 µM) | 0.025 (≈ 0.0452 µM) | 50 (≈ 90.5 µM) | 0.2 (≈ 0.362 µM) | 0.098 (≈ 0.177 µM) | 0.013 (≈ 0.0235 µM)
3 | CO/N=C(\C(=O)N[C@@H]1C(=O)N2C(C(=O)[O-])=C(/C=C/C[N+]3(C)C[C@@H](O)[C@@H](O)C3)CS[C@H]12)c1csc(N)n1 (stereo partly drawn) [1-a, 7β-[2-(2-Aminothiazol-4-yl)-(Z)-2-methoxyiminoacetamido]-3-[(E)-3-(meso-3,4-dihydroxy-1-methyl-1-pyrrolidinio)-1-propen-1-yl]-3-cephem-4-carboxylate] | 0.049 (≈ 0.091 µM) | 6.25 (≈ 11.6 µM) | 0.025 (≈ 0.0464 µM) | 0.049 (≈ 0.091 µM) | 0.049 (≈ 0.091 µM) | 3.13 (≈ 5.81 µM) | 0.013 (≈ 0.0241 µM) | 0.013 (≈ 0.0241 µM) | 0.39 (≈ 0.724 µM) | 3.13 (≈ 5.81 µM) | 3.13 (≈ 5.81 µM) | 0.013 (≈ 0.0241 µM) | 1.56 (≈ 2.9 µM) | 0.013 (≈ 0.0241 µM) | 0.78 (≈ 1.45 µM) | 0.025 (≈ 0.0464 µM) | 50 (≈ 92.8 µM) | 0.2 (≈ 0.371 µM) | 0.098 (≈ 0.182 µM) | 0.013 (≈ 0.0241 µM)
4 | CO/N=C(\C(=O)N[C@@H]1C(=O)N2C(C(=O)[O-])=C(/C=C/C[N+]3(C)C[C@H](O)[C@@H](O)C3)CS[C@H]12)c1csc(N)n1 [1-b, 7β-[2-(2-Aminothiazol-4-yl)-(Z)-2-methoxyiminoacetamido]-3-[(E)-3-(3S,4S-dihydroxy-1-methyl-1-pyrrolidinio)-1-propen-1-yl]-3-cephem-4-carboxylate] | 0.049 (≈ 0.091 µM) | 3.13 (≈ 5.81 µM) | 0.025 (≈ 0.0464 µM) | 0.049 (≈ 0.091 µM) | 0.049 (≈ 0.091 µM) | 3.13 (≈ 5.81 µM) | 0.007 (≈ 0.013 µM) | 0.025 (≈ 0.0464 µM) | 0.39 (≈ 0.724 µM) | 0.78 (≈ 1.45 µM) | 1.56 (≈ 2.9 µM) | 0.025 (≈ 0.0464 µM) | 1.56 (≈ 2.9 µM) | 0.013 (≈ 0.0241 µM) | 0.78 (≈ 1.45 µM) | 0.025 (≈ 0.0464 µM) | 50 (≈ 92.8 µM) | 0.2 (≈ 0.371 µM) | 0.098 (≈ 0.182 µM) | 0.013 (≈ 0.0241 µM)
5 | CO/N=C(\C(=O)N[C@@H]1C(=O)N2C(C(=O)[O-])=C(/C=C/C[N+]3(C)C[C@H](O)C[C@H]3CO)CS[C@H]12)c1csc(N)n1 (stereo partly drawn) [1-c, 7β-[2-(2-Aminothiazol-4-yl)-(Z)-2-methoxyiminoacetamido]-3-[(E)-3-(4R-hydroxy-2S-hydroxymethyl-1-methyl-1-pyrrolidinio)-1-propen-1-yl]-3-cephem-4-carboxylate] | 0.049 (≈ 0.0887 µM) | 3.13 (≈ 5.66 µM) | 0.025 (≈ 0.0452 µM) | 0.049 (≈ 0.0887 µM) | 0.049 (≈ 0.0887 µM) | 6.25 (≈ 11.3 µM) | 0.004 (≈ 0.00724 µM) | 0.013 (≈ 0.0235 µM) | 0.39 (≈ 0.706 µM) | 3.13 (≈ 5.66 µM) | 3.13 (≈ 5.66 µM) | 0.025 (≈ 0.0452 µM) | 1.56 (≈ 2.82 µM) | 0.013 (≈ 0.0235 µM) | 0.78 (≈ 1.41 µM) | 0.049 (≈ 0.0887 µM) | 50 (≈ 90.5 µM) | 0.2 (≈ 0.362 µM) | 0.2 (≈ 0.362 µM) | 0.013 (≈ 0.0235 µM)
6 | CO/N=C(\C(=O)N[C@@H]1C(=O)N2C(C(=O)[O-])=C(/C=C/C[N+](C)(CCO)CCO)CS[C@H]12)c1csc(N)n1 [1-d] | 0.098 (≈ 0.181 µM) | 6.25 (≈ 11.6 µM) | 0.013 (≈ 0.024 µM) | 0.049 (≈ 0.0906 µM) | 0.049 (≈ 0.0906 µM) | 3.13 (≈ 5.79 µM) | 0.004 (≈ 0.0074 µM) | 0.013 (≈ 0.024 µM) | 0.39 (≈ 0.721 µM) | 0.78 (≈ 1.44 µM) | 1.56 (≈ 2.89 µM) | 0.025 (≈ 0.0462 µM) | 0.78 (≈ 1.44 µM) | 0.013 (≈ 0.024 µM) | 0.78 (≈ 1.44 µM) | 0.025 (≈ 0.0462 µM) | 50 (≈ 92.5 µM) | 0.2 (≈ 0.37 µM) | 0.098 (≈ 0.181 µM) | 0.013 (≈ 0.024 µM)
